Laboratory results: patent US20100267712A1, “ISOINDOLINE COMPOUNDS FOR THE TREATMENT OF SPINAL MUSCULAR ATROPHY AND OTHER USES” (The United States of America, as represented by the …, priority 2007, published 2010)

Tested on: SMN2-linked luciferase-reporter gene construct
Test: SMN Splice Reporter Assay (SMN2-linked luciferase reporter)
Assay type: cell-based
Details: for EC50: cervical carcinoma cell lines, SMN2 splice luciferase reporter; for Fold Increase: fold-increase of luciferase over baseline reading of transformed cells without any test compound
Excerpt: As previously discussed, SMN1 is the gene deleted in SMA patients; the SMN2 gene remains intact in both SMA and normal patients. Therefore, SMN2 provides a potential means of increasing SMN production in SMA patients and is, thus, a target for developing SMA treatments. SMN2 is identical to SMN1 with the exception of a single base pair change that results in reduced expression of the gene. The reduction is based on the creation of an alternatively spliced RNA that produces an unstable protein carrying a deletion of exon 7. Both full length SMN and exon 7 deleted SMN are produced by the SMN2 gene via alternative RNA splicing, but the major product is the unstable deleted form.
Cervical carcinoma cell lines were transformed with a SMN2-linked luciferase-reporter gene construct. The reporter is designed to detect shifts in the alternative splicing of SMN2 sequences. In particular, the reporter is constructed as a fusion of the alternatively spliced sequences of the SMN2 gene and the luciferase gene. Luciferase sequences are in the correct translational reading frame only when the SMN2 sequences are spliced according to the normal SMN1 mechanism (e.g., splicing to include exon 7), which allows for translation of the stable SMN protein. Compounds were tested in the assay by administering the compound to the cell line and detecting an increase in the luciferase activity. The assay is described in greater detail in Zhang et al., Gene Ther., 8: 1532-8 (2001). Compounds were administered as described in Lunn et al, Chem. & Biol, 11: 1489-1493 (2004).
The results are reported as a fold-increase over a baseline reading of transformed cells without any test compound. The EC50 value also is reported in Table 1 for some exemplary compounds of the invention.

Structure (SMILES) | EC50 [nM] | Fold Increase
O=C1c2cc(OC(F)F)ccc2CN1c1ccc2sccc2c1 [Example 121644] | 115 | 1.801
COc1ccc2c(c1)C(=O)N(c1ccc3nccc(O)c3c1)C2 [Example 121645] | – | 1.093
CCCOc1ccc2c(c1)C(=O)N(c1ccc3c(ccn3C)c1)C2 [Example 121785] | 80 | 1.29
COc1ccc2c(c1)C(=O)N(c1ccc3c(ccc[n+]3[O-])c1)C2 [Example 121786] | 188 | 1.498
O=C1c2cc(OC(F)F)ccc2CN1c1ccc2c(ccn2C(F)F)c1 [Example 121787] | – | 1.221
COc1ccc2c(c1)C(=O)N(c1ccc3c(ccn3C(F)F)c1)C2 [Example 121788] | – | 1.19
Cn1ccc2cc(N3Cc4ccc(S(C)(=O)=O)cc4C3=O)ccc21 [Example 121790] | 556 | 1.336
COc1ccc2c(c1)C(=O)N(c1ccc3ncncc3c1)C2 [Example 121791] | 1060 | 1.448
COc1ccc2c(c1)C(=O)N(c1cc3ccn(C)c3cn1)C2 [Example 121792] | 101 | 1.384
CCc1ccc2c(c1)C(=O)N(c1ccc3c(ccn3C)c1)C2 [Example 121793] | 85 | 1.529
COc1ccc2c(c1)C(=O)N(c1ccc3c(c1)NCCN3)C2 [Example 121921] | 217 | 1.365
CCCCOc1ccc2c(c1)C(=O)N(c1ccc3c(ccn3C)c1)C2 [Example 121922] | 225 | 1.301
CC(C)Oc1ccc2c(c1)C(=O)N(c1ccc3c(ccn3C)c1)C2 [Example 121923] | – | 1.194
Cn1ccc2cc(N3Cc4ccc(F)cc4C3=O)ccc21 [Example 121925] | 193 | 1.347
COc1cc2c(cc1F)CN(c1ccc3c(ccn3C)c1)C2=O [Example 121926] | 199 | 1.533
CC(C)Cc1ccc2c(c1)C(=O)N(c1ccc3c(ccn3C)c1)C2 [Example 121927] | 36 | 1.323
CCCCc1ccc2c(c1)C(=O)N(c1ccc3c(ccn3C)c1)C2 [Example 121928] | 148 | 1.384
Cn1ccc2cc(N3Cc4ccc(OC5CCCC5)cc4C3=O)ccc21 [Example 121929] | 83 | 1.316
Nc1ccc2c(c1)C(=O)N(c1ccc3ccsc3c1)C2 [Example 122036] | 347 | 1.827

Structure (SMILES) | EC50 [nM] | Fold Increase
Cn1ccc2cc(N3Cc4ccc(C(F)(F)F)cc4C3=O)ccc21 [Example 122037] | 862 | 1.406
CN(C)c1ccc2c(c1)C(=O)N(c1ccc3ccsc3c1)C2 [Example 122038] | 38 | 1.592
COc1ccc2c(c1)C(=O)N(c1ccc3nc(N(C)C)ncc3c1)C2 [Example 122039] | 7120 | 1.459
COc1ccc(-c2ccc3c(c2)C(=O)N(c2ccc4c(ccn4C)c2)C3)cc1 [Example 122040] | – | 1.148
C/C=C(/C)c1ccc2c(c1)C(=O)N(c1ccc3c(ccn3C)c1)C2 [Example 122041] | 76 | 1.606
Cn1ccc2cc(N3Cc4ccc(-c5cccnc5)cc4C3=O)ccc21 [Example 122042] | 728 | 1.422
Cn1ccc2cc(N3Cc4ccc(OCC(F)(F)F)cc4C3=O)ccc21 [Example 122043] | 540 | 1.341
COc1ccc2c(c1)C(=O)N(c1ccc3c(c1)c(Br)cn3C)C2 [Example 122044] | 160 | 1.383
Cn1ccc2cc(N3Cc4ccc(OC(F)(F)C(F)Cl)cc4C3=O)ccc21 (centres unmarked) [Example 122180] | 92 | 1.64
Cn1ccc2cc(N3Cc4ccc(-c5cncnc5)cc4C3=O)ccc21 [Example 122181] | – | 1.169
COc1ccc2c(c1)CN(c1ccc3c(ccn3C)c1)C2 [Example 122183] | 593 | 1.518
COc1ccc2c(c1)C(=O)N(c1ccc3c(c1)c(C)cn3C)C2 [Example 122184] | 409 | 1.639
COc1ccc2c(c1)C(=O)N(c1ccc3c(c1)CCN3C)C2 [Example 122314] | – | 1.026
COc1ccc(-c2ccc3c(c2)C(=O)N(c2ccc4ccn(C)c4c2)C3)cc1 [Example 122315] | – | 1.091
Cn1ccc2cc(N3Cc4cc(F)ccc4C3=O)ccc21 [Example 122316] | 65 | 1.401
Cn1ccc2ccc(N3Cc4ccc(-c5cccnc5)cc4C3=O)cc21 [Example 122318] | 459 | 1.94
CN1CCCc2cc(N3Cc4ccc(OC(F)F)cc4C3=O)ccc21 [Example 122319] | 203 | 1.97
O=C1c2cc(O)ccc2CN1c1ccc2sccc2c1 [Example 122430] | 86 | 1.769
Cn1ccc2cc(N3Cc4ccc(OC(F)(F)Br)cc4C3=O)ccc21 [Example 122431] | 220 | 1.552

Structure (SMILES) | EC50 [nM] | Fold Increase
COc1ccc2c(c1)C(=O)N(c1ccc3nc(OC)ncc3c1)C2 [Example 122432] | 1140 | 1.32
Cn1ccc2ccc(N3Cc4ccc(-c5cncnc5)cc4C3=O)cc21 [Example 122433] | 1070 | 1.333
COc1ccc2c(c1)C(=O)N(c1ccc3scc(Br)c3c1)C2 [Example 122434] | 378 | 1.718
COc1ccc2c(c1)C(=O)N(c1ccc3c(c1)N(C)CCN3C)C2 [Example 122436] | 5950 | 1.354
CCCOc1ccc2c(c1)C(=O)N(c1ccc3sccc3c1)C2 [Example 122551] | – | 1.235
CCCCOc1ccc2c(c1)C(=O)N(c1ccc3sccc3c1)C2 [Example 122552] | – | 1.202
CC(C)Oc1ccc2c(c1)C(=O)N(c1ccc3sccc3c1)C2 [Example 122553] | – | 1.082
CCOc1ccc2c(c1)C(=O)N(c1ccc3sccc3c1)C2 [Example 122554] | 27 | 1.475
Cc1ccc2c(c1)C(=O)N(c1ccc3ccsc3c1)C2 [Example 122555] | 87 | 1.509
O=C1c2cc(O)ccc2CN1c1ccc2ccsc2c1 [Example 122556] | 139 | 1.671
O=C1c2cc(Br)ccc2CN1c1ccc2ccsc2c1 [Example 122557] | – | 1.383
O=C1c2cc(Br)ccc2CN1c1ccc2sccc2c1 [Example 122558] | 94 | 1.469
CCc1ccc2c(c1)C(=O)N(c1ccc3ccsc3c1)C2 [Example 122683] | 125 | 1.582
CCc1ccc2c(c1)C(=O)N(c1ccc3sccc3c1)C2 [Example 122684] | 57 | 1.665
CCCc1ccc2c(c1)C(=O)N(c1ccc3sccc3c1)C2 [Example 122819] | 35 | 1.547
COc1ccc2c(c1)C(=O)N(c1ccc3nccc(N(C)C)c3c1)C2 [Example 122820] | – | 1.066
COc1ccc2c(c1)C(=O)N(c1ccc3cccnc3c1)C2 [Example 122821] | 37 | 1.401
Cc1cc2cc(N3Cc4ccc(O)cc4C3=O)ccc2n1C [Example 123010] | 302 | 1.336
COc1ccc2c(c1)C(=O)N(c1ccc3scc(C)c3c1)C2 [Example 123012] | 272 | 1.773
